# Measurements taken from patent publication US20040197346A1, “Materials and methods for intracellular transport and their uses” (Marie Curie Cancer Care, priority 1997, published 2004).
# Legend:
# [1] = Transport activity of VP22 sub-sequences; type: cell-based; conditions: sub-sequences of full HSV1 VP22 sequence (1-301)
# [2] = tested on: Cos-1 cells; test: Delivery by intercellular trafficking, immunofluorescence of transfected Cos-1 cell monolayers; type: cell-based; conditions: transfected Cos-1 cells, 48 h, methanol-fixed, anti-VP22/-p53/-epitope immunofluorescence
# Protocol: Cos-1 cells were grown in Dulbecco's modified MEM supplemented with 10% new born calf serum at 37° C. with 5% CO2.
# Transfections were performed using the BES/CaCl2 method (Elliott and O'Hare, 1997) with 200 ng test plasmid with 1800 ng pUB19. Transfections were allowed to proceed for 48 h at which point the monolayers were harvested for immunofluorescence or western blot analysis.
# Cell monolayers on coverslips were fixed with 100% methanol for 15 mins at room temperature and labelled as described in Elliott and O'Hare (1997). All antibodies were diluted in PBS+10% serum. VP22 was detected using a rabbit polyclonal antibody AGV30 (1:500), p53 was detected using a mouse monoclonal antibody DO-1 (Santa-Cruz Ltd), the CMV epitope was detected using a mouse monoclonal antibody CMV. LNA (Capricorn Ltd). Images were obtained using a Bio-Rad MRC600 confocal microscope.
# The VP22-p53 fusion protein construct was generated by cloning a full length p53 PCR fragment C-terminal to VP22 into a unique Bam site, keeping both VP22 and the CMV epitope in frame.
# We constructed an epitope-tagged full length in-frame VP22-p53 fusion protein construct (FIG. 2). This vector generates a fusion protein of approx 90 kDa when expressed in Cos-1 cells, with very little protein degradation as judged by western blot analysis (FIG. 3). […]
Substance,transport activity [1],delivery by intercellular trafficking (spread into nuclei of neighbouring non-expressing cells) [2]
aa 60-301: polypeptide corresponding to aminoacids 60-301 of the full HSV1 VP22 sequence (1-301),transport activity is present,–
"VP22: HSV-1 virion protein VP22, 38 kDa, with intercellular trafficking mechanism",–,clear spread to the nuclei of adjacent cells
aa 159-301: polypeptide corresponding to aminoacids 159-301 of the full HSV1 VP22 sequence (1-301),transport activity is present,–
aa 175-301: polypeptide consisting of aa 175-301 of the VP22 sequence,markedly less transport activity,–
deletion of the 34-aminoacid C-terminal sequence from VP22 of HSV1: VP22 of HSV1 lacking its 34-aminoacid C-terminal sequence,abolishes transport-activity,–
